Patent US20230322715A1, “BROAD SPECTRUM ANTI-CANCER COMPOUNDS” (The Regents of the University of California, priority 2019, published 2023)
Values joined by “and” are separate entries in the source; they are usually repeats but may differ in a detail not shown here. Equal values may be shown once. Read-outs that look alike come from different tables or passages of the source.

Legend:
ALKBH5 = ALKBH5 (Homo sapiens (Human), UniProt Q6P6C2); assay: Fluorescence enzymatic inhibition assay (m6A7-Broccoli RNA / DFHBI-1T) against ALKBH5; format: biochemical
Protocol: (§1) Inhibitors were added in concentrations ranging from 0.008-40 μM; all inhibitors were dissolved in DMSO and added to a final concentration of 0.2% DMSO. […] After incubation at room temperature for 2 hours, the plates were left at 4° C. overnight (16 hours) to allow DFHBI-1T to bind to A7-Broccoli RNA. […] Sigmoidal dose-response curves were fitted in GraphPad Prism 6. All assays were performed in triplicate, with additional repetitions added as necessary.

FTO = FTO (Homo sapiens (Human), UniProt Q9C0B1); assay: Fluorescence enzymatic inhibition assay (m6A7-Broccoli RNA / DFHBI-1T) against FTO; format: biochemical
Protocol: In order to determine their efficacy as FTO inhibitors, the compounds were screened by a fluorescence enzymatic inhibition assay developed previously by the Jaffrey lab.^44 Briefly, a nonfluorescent methylated RNA substrate termed “m6A7-Broccoli” is incubated with FTO in the presence of 2-oxoglutarate (300 μM), (NH4)2Fe(SO4)2·6H2O (300 μM), and L-ascorbate (2 mM) for 2 hours at room temperature in reaction buffer (50 mM NaHEPES, pH 6).
as §1

[1] = elogD / log D determination
YTHDF2 = YTHDF2 (Homo sapiens (Human), UniProt Q9Y5A9); assay: In vitro FRET assay for binding affinities of YTH inhibitors, YTHDF2
Excerpt: FIG. 8-2 depicts possible design and synthesis of compound libraries. In Vitro FRET assay development could yield a high throughput FRET assay to determine binding affinities for potential YHT inhibitors against YTHDF1, YTHDF2, YTHDF3, or other similar proteins.

[2] = Table 700 compounds, read-out: Enzymatic IC50 ALKBH5
[3] = Table 700 compounds, read-out: Enzymatic IC50 FTO
[4] = m6A7-Broccoli fluorescence assay, 0.250 μM ALKBH5, read-out: Enzymatic IC50 ALKBH5
[5] = Table 800 compounds, read-out: ALKBH5 IC50
[6] = Table 800 compounds, read-out: FTO IC50
[7] = m6A7-Broccoli fluorescence assay, 0.250 μM FTO, inhibitor up to 40 μM, triplicate, read-out: Enzymatic IC50 FTO
[8] = ALK series, permeability data and IC50 tables, read-out: Enzymatic IC50 ALKBH5

Sequence of YTHDF2 (Q9Y5A9 whole entry): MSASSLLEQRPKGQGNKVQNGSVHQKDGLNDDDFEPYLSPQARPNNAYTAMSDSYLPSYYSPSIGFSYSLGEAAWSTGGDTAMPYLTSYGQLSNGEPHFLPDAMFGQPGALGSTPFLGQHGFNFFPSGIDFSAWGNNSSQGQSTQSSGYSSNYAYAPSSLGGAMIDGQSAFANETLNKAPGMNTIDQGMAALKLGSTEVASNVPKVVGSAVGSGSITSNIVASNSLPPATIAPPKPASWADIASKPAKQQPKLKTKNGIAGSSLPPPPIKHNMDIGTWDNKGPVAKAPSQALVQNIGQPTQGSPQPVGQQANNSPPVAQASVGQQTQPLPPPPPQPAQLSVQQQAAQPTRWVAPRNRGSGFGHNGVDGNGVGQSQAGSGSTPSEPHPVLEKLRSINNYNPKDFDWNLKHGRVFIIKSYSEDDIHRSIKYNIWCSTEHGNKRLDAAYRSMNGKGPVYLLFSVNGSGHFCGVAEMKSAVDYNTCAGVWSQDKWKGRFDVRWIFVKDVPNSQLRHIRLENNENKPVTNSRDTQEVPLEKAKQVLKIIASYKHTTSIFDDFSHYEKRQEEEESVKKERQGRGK
Sequence of ALKBH5 (Q6P6C2 whole entry): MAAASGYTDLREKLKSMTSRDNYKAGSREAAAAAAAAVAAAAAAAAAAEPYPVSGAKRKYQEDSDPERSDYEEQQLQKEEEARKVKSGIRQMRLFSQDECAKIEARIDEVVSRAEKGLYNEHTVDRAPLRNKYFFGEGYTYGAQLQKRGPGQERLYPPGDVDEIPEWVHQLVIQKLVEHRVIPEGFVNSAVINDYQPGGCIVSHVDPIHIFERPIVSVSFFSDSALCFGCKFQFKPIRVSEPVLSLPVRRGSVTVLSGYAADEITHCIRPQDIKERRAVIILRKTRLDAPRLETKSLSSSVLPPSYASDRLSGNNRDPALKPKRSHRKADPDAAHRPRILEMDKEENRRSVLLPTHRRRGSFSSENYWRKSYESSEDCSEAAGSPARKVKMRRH
Sequence of FTO (Q9C0B1 whole entry): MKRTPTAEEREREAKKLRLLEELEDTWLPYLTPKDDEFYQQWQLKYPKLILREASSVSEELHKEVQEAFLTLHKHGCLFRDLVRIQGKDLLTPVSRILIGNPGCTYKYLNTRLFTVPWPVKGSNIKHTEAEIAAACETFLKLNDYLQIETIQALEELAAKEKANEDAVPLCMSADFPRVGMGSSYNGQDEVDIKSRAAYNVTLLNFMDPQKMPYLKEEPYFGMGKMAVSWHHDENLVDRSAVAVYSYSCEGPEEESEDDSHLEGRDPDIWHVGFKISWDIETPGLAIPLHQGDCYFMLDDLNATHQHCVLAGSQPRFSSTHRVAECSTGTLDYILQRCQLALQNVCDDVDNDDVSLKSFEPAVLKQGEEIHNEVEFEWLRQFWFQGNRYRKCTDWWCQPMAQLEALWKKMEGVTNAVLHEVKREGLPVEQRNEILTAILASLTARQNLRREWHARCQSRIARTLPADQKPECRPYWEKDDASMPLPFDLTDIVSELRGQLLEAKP

O=C(O)[C@H]1NCCS1 [ALK-06]
IC50 (ALKBH5; [2]): 8.8 µM and 7.95 µM
IC50 (FTO; [3]): > 40 µM
elogD ([1]; Table 700 compounds): 0.89

COc1cccc2c(CNCC3(N4CCCC4)COC3)c[nH]c12 [TR-FTO-14]
IC50 (ALKBH5; [4]): > 40 µM
elogD [1]: 0.40

COc1ncc(-c2ccc3cc(O)ccc3c2)cn1 [FTO-2, 6-(2-methoxypyrimidin-5-yl)naphthalen-2-ol]
IC50 (ALKBH5; [4]): 85.5 µM

CN(CCCN1c2ccccc2CCc2ccccc21)S(=O)(=O)c1ccc(OC(F)(F)F)cc1 [TR-ALKBH5-40]
IC50 (ALKBH5; [5]): 2.3 µM
IC50 (FTO; [6]): 59.4 µM
elogD ([1]; Table 800 compounds): 2.05

COc1ccc(CNC(=O)C2CC(Oc3ccccc3)CN2C(=O)c2ccccc2OC)c(OC)c1 (stereo not shown) [TR-FTO 2-04]
IC50 (FTO; read-out: Enzymatic IC50 FTO): 6.67 ± 2.31 µM

Cc1ccc(CNCC2(N3CCCC3)COC2)cc1C [TR-FTO-30]
IC50 (ALKBH5; [4]): 9.9 µM
elogD [1]: 0.87

COc1ccccc1C(=O)N1CC(Oc2ccccc2)CC1C(=O)Nc1cccc(F)c1O (stereo not shown) [TR-FTO 2-09]
IC50 (FTO; read-out: Enzymatic IC50 FTO): > 40 µM

c1ccc2c(CNCC3(N4CCCC4)COC3)c[nH]c2c1 [TR-FTO-13]
IC50 (ALKBH5; [4]): > 40 µM
IC50 (FTO; [7]): 1 µM

O=S(=O)(Nc1cc(F)ccc1O)c1ccc(OC(F)(F)F)cc1 [TR-ALKBH5-30]
IC50 (ALKBH5; [5]): 1 µM
IC50 (FTO; [6]): > 40 µM
elogD ([1]; Table 800 compounds): 0.81

O=S(=O)(Nc1cccc(O)c1)c1ccc(OC(F)(F)F)cc1 [TR-ALKBH5-39]
IC50 (ALKBH5; [5]): 3.1 µM
IC50 (FTO; [6]): > 40 µM
elogD ([1]; Table 800 compounds): 1.60

c1ccc(-c2ccc(CNCC3(N4CCCC4)COC3)o2)cc1 [TR-FTO-35]
IC50 (ALKBH5; [4]): 55 µM
elogD [1]: 1.14

COc1cc(NC(=O)C2CC(Oc3ccccc3)CN2C(=O)c2ccccc2OC)cc(OC)c1 (stereo not shown) [TR-FTO 2-01]
IC50 (FTO; read-out: Enzymatic IC50 FTO): 0.61 ± 0.17 µM

COC(=O)C1COC(c2ccccc2O)N1 (stereo not shown) [ALK-16]
IC50 (ALKBH5; [8]): 8.2 ± 2.3 µM
IC50 (ALKBH5; [2]): 8.2 ± 2.3 µM
IC50 (FTO; [3]): > 40 µM
elogD ([1]; Table 700 compounds): 1.44

COc1ccccc1C(=O)N1CC(Oc2ccccc2)CC1C(=O)NCc1cccnc1 (stereo not shown) [TR-FTO 2-07]
IC50 (FTO; read-out: Enzymatic IC50 FTO): 0.17 ± 0.03 µM

COc1ccccc1C(=O)N1CC(Oc2ccccc2)CC1C(=O)Nc1ccccc1SC (stereo not shown) [TR-FTO 2-08]
IC50 (FTO; read-out: Enzymatic IC50 FTO): 10.3 ± 2.29 µM

O=S(=O)(NCc1ccccn1)c1ccc(OC(F)(F)F)cc1 [TR-ALKBH5-32]
IC50 (ALKBH5; [5]): 2.2 µM
IC50 (FTO; [6]): > 40 µM
elogD ([1]; Table 800 compounds): 2.25

CC1(C)SCC(C)(C(=O)O)N1C(N)=O (stereo not shown) [ALK-05]
IC50 (ALKBH5; [2]): 19.8 ± 1.8 µM
IC50 (FTO; [3]): > 40 µM
elogD ([1]; Table 700 compounds): 0.16

COc1ncc(-c2ccc3nc(N)sc3c2)cn1 [FTO-4, 6-(2-methoxypyrimidin-5-yl)benzo[d]thiazol-2-amine]
IC50 (ALKBH5; [4]): 39.4 ± 3.1 µM
IC50 (FTO; [7]): 3.39 ± 2.5 µM

O=S(=O)(Nc1cc(Cl)ccc1O)c1ccc(OC(F)(F)F)cc1 [TR-ALKBH5-29]
IC50 (ALKBH5; [5]): 0.11 µM
IC50 (FTO; [6]): > 40 µM
elogD ([1]; Table 800 compounds): 0.88

C[C@@H](NS(=O)(=O)c1ccc(OC(F)(F)F)cc1)c1cccnc1 [TR-ALKBH5-42]
IC50 (ALKBH5; [5]): 0.25 µM
IC50 (FTO; [6]): 285 µM
elogD ([1]; Table 800 compounds): 0.83

FC1CCN(C2(CNCc3c[nH]c4ccccc34)COC2)C1 (stereo not shown) [TR-FTO-47]
IC50 (ALKBH5; [4]): > 40 µM
IC50 (FTO; [7]): 2.1 µM

O=S(=O)(NCC1CCCOC1)c1ccccc1 (stereo not shown) [TR-ALKBH5-08]
IC50 (ALKBH5; [5]): 0.5 µM
IC50 (FTO; [6]): 6.4 µM
elogD ([1]; Table 800 compounds): 0.89

FC(F)(F)c1cccc(CNCC2(N3CCCC3)COC2)c1 [TR-FTO-02]
IC50 (ALKBH5; [4]): 19.5 µM
IC50 (FTO; [7]): 4.3 µM
elogD [1]: 1.02

Fc1ccc2c(CNCC3(N4CCCC4)COC3)c[nH]c2c1 [TR-FTO-12]
IC50 (ALKBH5; [4]): 2.3 µM

FC(F)(F)Sc1ccc(CNCC2(N3CCCC3)COC2)cc1 [TR-FTO-40]
IC50 (ALKBH5; [4]): 3 µM
elogD [1]: 1.29

O=S(=O)(NCC1CCCOC1)c1ccc(OC(F)(F)F)cc1 (stereo not shown) [TR-ALKBH5-04]
IC50 (ALKBH5; [5]): 0.24 µM
IC50 (FTO; [6]): 19.7 µM
elogD ([1]; Table 800 compounds): 0.37

CN(C)Cc1ccc(NCc2ccc(C(F)(F)F)cc2)nc1 [TR-YTH-20]
Ki (YTHDF2; Ki values for YTH library against YTHDF2, read-out: Ki): 266 ± 92 pM
Ki (YTHDF2; read-out: Ki (pM) YTHDF2): 266 ± 92 pM
Ki (YTHDF2; read-out: Ki YTHDF2): 266 ± 92 pM

COC(=O)C1COC(c2ccc(O)cc2)N1 (stereo not shown) [ALK-13]
IC50 (ALKBH5; [2]): 6.7 ± 1.8 µM
IC50 (FTO; [3]): > 40 µM
elogD ([1]; Table 700 compounds): 2.12

O=S(=O)(Nc1cccs1)c1ccc(OC(F)(F)F)cc1 [TR-ALKBH5-27]
IC50 (ALKBH5; [5]): 2 µM
IC50 (FTO; [6]): > 40 µM
elogD ([1]; Table 800 compounds): 0.36

c1cc2cc(CNCC3(N4CCCC4)COC3)ccc2[nH]1 [TR-FTO-37]
IC50 (ALKBH5; [4]): 3.3 µM
elogD [1]: 0.75

O=C1N[C@H](C(=O)O)CS1 [ALK-10]
IC50 (ALKBH5; [2]): 1.7 ± 1.1 µM
IC50 (FTO; [3]): > 40 µM
elogD ([1]; Table 700 compounds): 0.54

COC(=O)C1COC(c2ccc(-c3ccccc3)o2)N1 (stereo not shown) [ALK-18]
IC50 (ALKBH5; [8]): 5.4 ± 1.4 µM
IC50 (ALKBH5; [2]): 5.4 ± 0.7 µM
IC50 (FTO; [3]): 14.2 ± 3.1 µM
elogD ([1]; Table 700 compounds): 0.73
